Measurements published in patent US20170088520A1, “DEUBIQUITINASE INHIBITORS” (PharmAkea, Inc., priority 2014, published 2017).

Key:
Type in all cases: cell-based
[1] = target: T1, DUB activity in cells (NCI-H929, Z138, MM.1S, A375) (Homo sapiens, UniProt Q93008); experiment: HA-Ubiquitin-Vinylsulfone (HA-Ub-VS) cell labeling assay; details: compound tested at 5 μM; HA-Ub-VS labeling of USP9x in cells
T1 construct: endogenous in cells; host or cells: NCI-H929, Z138, MM.1S, A375
Method: Example B-1: HA-Ubiqutin-Vinylsulfone (HA-Ub-VS) Cell Labeling
Inhibitition of DUB activity is measured in cells (NCI-H929, Z138, MM.1S, A375) using a hemaglutinin-ubiquitin-vinylsulfone (HA-Ub-VS) labeling assay. Briefly, 1-2×10^6 cells are plated in 12-well plates in 1 ml complete growth media and 250 μl of test compound in 0.5% dimethylsulfoxide (or DMSO control) is added to each well. Plates are incubated at 37° C., 5% CO2 for 2-6 hours before cells are harvested into eppendorf tubes, washed once in PBS and resuspended in 100 μl cold lysis buffer (50 mM Tris pH 8, 150 mM NaCl, 0.5% NP-40, 2 mM phenylmethylsulfonyl fluoride and complete protease inhibitor tablet). Resupended cells are frozen on dry ice, then thawed and incubated on ice for 15 minutes. Tubes are centrifuged for 10 minutes at 14,000 rpm at 4° C. and the cleared supernatants transferred to clean tubes. […] The samples are incubated 15-60 min at 37° C. before the addition of SDS gel loading buffer. Proteins are separated by SDS-PAGE, transferred to nitrocellulose and the blot probed with anti-HA antibody and anti-β-actin antibodies. The HA and β-actin antibodies are detected using secondary antibodies coupled to IRdye 800 or IRdye 680 and visualized and quantitated using the LiCor Odyssey machine.
(§1) The following compounds were tested in the above assays at 5 μM: […]

[2] = test system: Mcl-1 expression in cells (NCI-H929, Z138, MM.1S, A-375); experiment: Analysis of Mcl-1 expression by Western blotting; details: compound tested at 5 μM; Western blot
Method: (§2) Example B-2: Analysis of Md-1 Expression and PARP Cleavage
(§3) The ability of test compounds to decrease expression of the tumor promoting protein, Mcl-1, and to induce the inactivation/cleavage of the PARP protein is evaluated in cells (NCI-H929, Z138, MM.1S, A-375) by Western blotting. Cells are plated and treated as described in the HA-Ub-VS cell labeling assay (see above). A portion of the cleared lysate (15-50 μl) is run on an SDS-polyacrylamide gel to separate proteins and then transferred to nitrocellulose. After transfer to nitrocellulose, the proteins are detected by probing the blot with anti-Mcl-1 and anti-PARP antibodies followed by secondary antibodies coupled to IRdye 800 and IRdye 680 and visualization and quantitation using a LiCor Odyssey machine. Activity of the test compound is identified as a significant decrease in Mcl-1 expression relative to the vehicle treated cells and to the appearance of a cleaved fragment of PARP relative to the vehicle-treated cells.
as §1

[3] = test system: PARP cleavage in cells (NCI-H929, Z138, MM.1S, A-375); experiment: Analysis of PARP cleavage by Western blotting; details: compound tested at 5 μM; Western blot
Method: as §2, §3, §1

T1 sequence (Q93008 whole entry): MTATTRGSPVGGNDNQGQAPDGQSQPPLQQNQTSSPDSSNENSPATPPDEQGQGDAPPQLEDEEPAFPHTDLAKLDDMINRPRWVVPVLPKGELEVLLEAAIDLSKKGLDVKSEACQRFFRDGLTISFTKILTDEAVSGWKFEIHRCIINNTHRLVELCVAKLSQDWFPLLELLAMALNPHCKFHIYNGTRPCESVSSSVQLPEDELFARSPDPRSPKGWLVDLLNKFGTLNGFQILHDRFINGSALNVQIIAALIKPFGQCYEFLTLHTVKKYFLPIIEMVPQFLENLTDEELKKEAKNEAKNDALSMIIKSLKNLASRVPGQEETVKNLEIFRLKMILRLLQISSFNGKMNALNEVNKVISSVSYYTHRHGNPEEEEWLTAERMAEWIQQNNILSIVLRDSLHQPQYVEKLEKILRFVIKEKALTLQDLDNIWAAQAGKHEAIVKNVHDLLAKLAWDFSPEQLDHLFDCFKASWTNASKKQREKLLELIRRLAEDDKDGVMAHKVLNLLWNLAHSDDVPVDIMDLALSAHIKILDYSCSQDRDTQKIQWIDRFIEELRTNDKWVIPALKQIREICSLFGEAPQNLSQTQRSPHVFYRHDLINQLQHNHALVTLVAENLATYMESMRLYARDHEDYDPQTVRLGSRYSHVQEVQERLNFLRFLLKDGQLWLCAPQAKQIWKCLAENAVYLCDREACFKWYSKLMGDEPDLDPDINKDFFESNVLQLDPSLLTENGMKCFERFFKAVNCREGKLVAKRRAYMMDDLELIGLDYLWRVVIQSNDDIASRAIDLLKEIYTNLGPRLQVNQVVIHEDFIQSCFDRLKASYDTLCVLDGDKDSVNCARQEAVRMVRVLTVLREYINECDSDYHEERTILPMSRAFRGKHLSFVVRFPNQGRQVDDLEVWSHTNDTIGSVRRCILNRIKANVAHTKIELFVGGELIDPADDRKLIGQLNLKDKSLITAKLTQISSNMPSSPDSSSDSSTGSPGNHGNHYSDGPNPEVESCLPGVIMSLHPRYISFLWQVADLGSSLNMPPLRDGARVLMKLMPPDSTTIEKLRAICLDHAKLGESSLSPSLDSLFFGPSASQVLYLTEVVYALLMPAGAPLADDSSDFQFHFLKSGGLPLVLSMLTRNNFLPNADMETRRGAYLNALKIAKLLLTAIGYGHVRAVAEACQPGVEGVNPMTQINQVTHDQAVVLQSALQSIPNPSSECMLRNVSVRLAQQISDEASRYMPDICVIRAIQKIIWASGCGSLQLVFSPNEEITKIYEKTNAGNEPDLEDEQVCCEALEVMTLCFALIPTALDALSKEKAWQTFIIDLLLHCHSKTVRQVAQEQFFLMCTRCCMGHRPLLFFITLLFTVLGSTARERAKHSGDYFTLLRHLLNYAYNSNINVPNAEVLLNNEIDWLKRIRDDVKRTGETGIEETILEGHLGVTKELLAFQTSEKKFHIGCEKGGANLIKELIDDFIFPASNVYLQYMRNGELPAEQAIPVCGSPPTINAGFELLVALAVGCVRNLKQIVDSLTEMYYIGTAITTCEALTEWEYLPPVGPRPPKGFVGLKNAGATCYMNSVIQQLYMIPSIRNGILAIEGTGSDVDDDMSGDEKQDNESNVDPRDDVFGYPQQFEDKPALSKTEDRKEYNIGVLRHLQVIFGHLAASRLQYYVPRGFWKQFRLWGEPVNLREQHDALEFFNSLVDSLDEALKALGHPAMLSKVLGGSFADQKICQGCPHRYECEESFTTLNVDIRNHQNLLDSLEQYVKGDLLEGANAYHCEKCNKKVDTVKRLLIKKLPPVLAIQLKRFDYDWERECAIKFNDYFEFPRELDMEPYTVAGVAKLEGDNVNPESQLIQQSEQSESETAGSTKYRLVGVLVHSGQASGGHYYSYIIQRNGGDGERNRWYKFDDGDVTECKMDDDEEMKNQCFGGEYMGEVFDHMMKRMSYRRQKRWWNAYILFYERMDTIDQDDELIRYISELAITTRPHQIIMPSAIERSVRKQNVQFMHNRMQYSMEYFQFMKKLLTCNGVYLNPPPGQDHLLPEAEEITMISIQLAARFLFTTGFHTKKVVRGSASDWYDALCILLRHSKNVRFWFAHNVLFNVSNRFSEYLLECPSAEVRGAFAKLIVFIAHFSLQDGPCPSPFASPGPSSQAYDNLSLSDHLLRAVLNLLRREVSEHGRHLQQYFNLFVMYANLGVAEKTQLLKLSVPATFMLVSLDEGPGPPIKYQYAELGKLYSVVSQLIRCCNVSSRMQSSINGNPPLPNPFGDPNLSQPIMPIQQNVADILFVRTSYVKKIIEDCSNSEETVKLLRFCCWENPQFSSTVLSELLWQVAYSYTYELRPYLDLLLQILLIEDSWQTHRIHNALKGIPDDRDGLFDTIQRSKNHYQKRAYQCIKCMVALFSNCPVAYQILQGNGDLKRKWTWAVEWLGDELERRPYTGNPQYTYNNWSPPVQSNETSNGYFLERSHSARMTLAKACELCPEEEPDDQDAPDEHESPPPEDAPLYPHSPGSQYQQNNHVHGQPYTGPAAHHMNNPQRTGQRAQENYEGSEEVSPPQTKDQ

inhibition at 5 µM [1] [%] | SMILES | inhibition at 5 µM [2] [%] | PARP cleavage % Inhibition [3]
50 to 75 | N#C/C(=C\c1cccc(Br)n1)C(=O)NC1(c2ccc(-c3ccc4[nH]ccc4c3)cc2)CCCC1 [Compound 96, (E)-N-(1-(4-(1H-indol-5-yl)phenyl)cyclopentyl)-3-(6-bromopyridin-2-yl)-2-cyanoacrylamide] | 50 to 75 | A (A is ≧75% inhibition)
≥ 75 | N#C/C(=C\c1ncc(Br)cc1F)C(=O)NC1(c2ccccc2)CCCC1 [Compound 9, (E)-3-(5-Bromo-3-fluoropyridin-2-yl)-2-cyano-N-(1-phenylcyclopentyl)acrylamide] | ≥ 75 | A (A is ≧75% inhibition)
50 to 75 | N#C/C(=C\c1cccc(Br)n1)C(=O)NC1(c2ccc(C#CC3(O)COC3)cc2)CCCC1 [Compound 75, (E)-3-(6-bromopyridin-2-yl)-2-cyano-N-(1-(4-((3-hydroxyoxetan-3-yl)ethynyl)phenyl)cyclopentyl)acrylamide] | ≥ 75 | A (A is ≧75% inhibition)
25 to 50 | N#C/C(=C\c1cccc(C2CC2)n1)C(=O)NC1(c2ccc(-c3ccc(CC(=O)O)cc3)cc2)CCCC1 [Compound 93, (E)-2-(4′-(1-(2-cyano-3-(6-cyclopropylpyridin-2-yl)acrylamido)cyclopentyl)-[1,1′-biphenyl]-4-yl)acetic acid] | ≥ 75 | A (A is ≧75% inhibition)
50 to 75 | CN(C)C(=O)c1ccc(C2(NC(=O)/C(C#N)=C/c3ncc(Br)cc3Br)CCCC2)cc1 [Compound 66, (E)-4-(1-(2-cyano-3-(3,5-dibromopyridin-2-yl)acrylamido)cyclopentyl)-N,N-dimethylbenzamide] | ≥ 75 | A (A is ≧75% inhibition)
25 to 50 | CC(=O)OCc1ccc(C2(NC(=O)/C(C#N)=C/c3cccc(Br)n3)CCCC2)cc1 [Compound 87, (E)-4-(1-(3-(6-bromopyridin-2-yl)-2-cyanoacrylamido)cyclopentyl)benzyl acetate] | 50 to 75 | A (A is ≧75% inhibition)
50 to 75 | COC(=O)c1ccc(C2(NC(=O)/C(C#N)=C/c3cccc(Br)n3)CCCC2)cc1 [Compound 41, (E)-methyl 4-(1-(3-(6-bromopyridin-2-yl)-2-cyanoacrylamido)cyclopentyl)benzoate] | ≥ 75 | A (A is ≧75% inhibition)
< 25 | N#C/C(=C\c1cccc(-c2ccc(OCC(=O)O)cc2)n1)C(=O)NC1(c2ccccc2)CCCC1 [Compound 36] | < 25 | D (D is <25% inhibition)
≥ 75 | N#C/C(=C\c1ncc(Br)cc1Br)C(=O)NC1(c2ccccc2)CCCCCC1 [Compound 25, (E)-2-Cyano-3-(3,5-dibromopyridin-2-yl)-N-(1-phenylcycloheptyl)acrylamide] | ≥ 75 | A (A is ≧75% inhibition)
50 to 75 | Cn1cc(-c2cccc(/C=C(\C#N)C(=O)NC3(c4ccccc4)CCCC3)n2)cn1 [Compound 62, (E)-2-cyano-3-(6-(1-methyl-1H-pyrazol-4-yl)pyridin-2-yl)-N-(1-phenylcyclopentyl)acrylamide] | ≥ 75 | A (A is ≧75% inhibition)
< 25 | Cc1ccc(-c2ccc(C3(NC(=O)/C(C#N)=C/c4cccc(Br)n4)CCCC3)cc2)cc1CC(=O)O [Compound 98, (E)-2-(4′-(1-(3-(6-bromopyridin-2-yl)-2-cyanoacrylamido)cyclopentyl)-4-methyl-[1,1′-biphenyl]-3-yl)acetic acid] | < 25 | D (D is <25% inhibition)
50 to 75 | N#C/C(=C\c1cccc(Br)n1)C(=O)NC1(c2cccc(CO)c2)CCCC1 [Compound 81, (E)-3-(6-bromopyridin-2-yl)-2-cyano-N-(1-(3-(hydroxymethyl)phenyl)cyclopentyl)acrylamide] | 25 to 50 | A (A is ≧75% inhibition)
25 to 50 | N#C/C(=C\c1ncc(Br)cc1Br)C(=O)NC1(c2ccc(-c3ccc(N4CCOCC4)nc3)cc2)CCCC1 [Compound 51, (E)-2-cyano-3-(3,5-dibromopyridin-2-yl)-N-(1-(4-(6-morpholinopyridin-3-yl)phenyl)cyclopentyl)acrylamide] | 25 to 50 | A (A is ≧75% inhibition)
< 25 | COc1ncccc1-c1ccc(C2(NC(=O)/C(C#N)=C/c3ncc(Br)cc3Br)CCCC2)cc1 [Compound 53, (E)-2-cyano-3-(3,5-dibromopyridin-2-yl)-N-(1-(4-(2-methoxypyridin-3-yl)phenyl)cyclopentyl)acrylamide] | 50 to 75 | A (A is ≧75% inhibition)
< 25 | N#C/C(=C\c1cccc(-c2ccc(CC(=O)O)cc2)n1)C(=O)NC1(c2ccccc2)CCCC1 [Compound 40] | < 25 | C (C is 25% to 50% inhibition)
25 to 50 | N#C/C(=C\c1cccc(C2CC2)n1)C(=O)NC1(c2ccc(-c3ccc(C(=O)O)cc3)cc2)CCCC1 [Compound 92, (E)-4′-(1-(2-cyano-3-(6-cyclopropylpyridin-2-yl)acrylamido)cyclopentyl)-[1,1′-biphenyl]-4-carboxylic acid] | ≥ 75 | A (A is ≧75% inhibition)
50 to 75 | COC(=O)c1cccc(-c2ccc(C3(NC(=O)/C(C#N)=C/c4ncc(Br)cc4Br)CCCC3)cc2)c1 [Compound 38, (E)-methyl 4′-(1-(2-cyano-3-(3,5-dibromopyridin-2-yl)acrylamido)cyclopentyl)-[1,1′-biphenyl]-3-carboxylate] | 50 to 75 | A (A is ≧75% inhibition)
50 to 75 | N#C/C(=C\c1cccc(Br)n1)C(=O)NC1(c2ccc(C#CCNCCO)cc2)CCCC1 [Compound 78, (E)-3-(6-bromopyridin-2-yl)-2-cyano-N-(1-(4-(3-((2-hydroxyethyl)amino)prop-1-yn-1-yl)phenyl)cyclopentyl)acrylamide] | < 25 | B (B is 50% to 75% inhibition)
25 to 50 | N#C/C(=C\c1cccc(Br)n1)C(=O)NC1(c2ccccc2)CCCCC1 [Compound 17, (E)-3-(6-Bromopyridin-2-yl)-2-cyano-N-(1-phenylcyclohexyl)acrylamide] | 50 to 75 | A (A is ≧75% inhibition)
50 to 75 | N#C/C(=C\c1nc(Cl)ccc1Cl)C(=O)NC1(c2ccccc2)CCCC1 [Compound 7, (E)-3-(3,6-Dichloropyridin-2-yl)-2-cyano-N-(1-phenylcyclopentyl)acrylamide] | ≥ 75 | A (A is ≧75% inhibition)
< 25 | N#C/C(=C\c1cccc(Br)n1)C(=O)NC1(c2cccnc2)CCCC1 [Compound 3-1, (E)-3-(6-bromopyridin-2-yl)-2-cyano-N-(1-(pyridin-3-yl)cyclopentyl) acrylamide] | < 25 | B (B is 50% to 75% inhibition)
≥ 75 | N#C/C(=C\c1cccc(Br)n1)C(=O)NC1(c2ccc(O)cc2)CCCC1 [Compound 79, (E)-3-(6-bromopyridin-2-yl)-2-cyano-N-(1-(4-hydroxyphenyl)cyclopentyl)acrylamide] | ≥ 75 | A (A is ≧75% inhibition)
< 25 | N#C/C(=C\c1cccc(-c2cccc(C(=O)O)c2)n1)C(=O)NC1(c2ccccc2)CCCC1 [Compound 71, (E)-3-(6-(2-cyano-3-oxo-3-((1-phenylcyclopentyl)amino)prop-1-en-1-yl)pyridin-2-yl)benzoic acid] | < 25 | D (D is <25% inhibition)
